# ChEMBL document CHEMBL2424520, “Screening and evaluation of small organic molecules as ClpB inhibitors and potential antimicrobials” (J Med Chem, 2013)
# The source made the active and inactive calls. No cut-off for these calls is given here.
# Tested on: not listed separately
# Assay: Cytotoxicity against human HeLa cells assessed as cell viability at 40 to 100 uM after 72 hrs by tetrazolium reduction assay relative to control
# Format: cell-based
# Settings: read-out: Activity
row,SMILES,"viability at 72 h, up to 100 µM"
1,O=C(Nc1ccccc1)OCCSC(=O)Nc1ccc(Cl)c(Cl)c1,50%

# Tested on: not listed separately
# Assay: Cytotoxicity against CHO cells assessed as cell viability at 40 to 100 uM after 72 hrs by tetrazolium reduction assay relative to control
# Format: cell-based, Cricetulus griseus
# Settings: chinese hamster, read-out: Activity
row,SMILES,"viability at 72 h, up to 100 µM"
1,O=C(Nc1ccccc1)OCCSC(=O)Nc1ccc(Cl)c(Cl)c1,50%

# Tested on: Escherichia coli
# Assay: Antibacterial activity against TolC-deleted Escherichia coli JLS1015 at 37 to 47 degC after 7 hrs by two-fold dilution method
# Format: functional
# Settings: JLS1015, 7 h
row,SMILES,MIC
1,O=C(Nc1ccccc1)OCCSC(=O)Nc1ccc(Cl)c(Cl)c1,5 µM

# Tested on: Escherichia coli
# Assay: Antibacterial activity against CLPB-deleted Escherichia coli MC4100 assessed as growth inhibition at 37 degC after 24 hrs by two-fold dilution method
# Format: functional, organism-based
# Settings: not given
row,SMILES,growth inhibition (GI)
1,O=C(Nc1ccccc1)OCCSC(=O)Nc1ccc(Cl)c(Cl)c1,Active

# Tested on: Escherichia coli
# Assay: Antibacterial activity against Escherichia coli MC4100 assessed as growth inhibition at 37 degC after 24 hrs by two-fold dilution method
# Format: functional, organism-based
# Settings: not given
row,SMILES,growth inhibition (GI)
1,O=C(Nc1ccccc1)OCCSC(=O)Nc1ccc(Cl)c(Cl)c1,Active

# Tested on: Escherichia coli
# Assay: Antibacterial activity against CLPB-deleted Escherichia coli MC4100 assessed as reduction of CFU count at 300 uM at 37 degC after 24 hrs by two-fold dilution method
# Format: functional, organism-based
# Settings: not given
row,SMILES,Activity
1,O=C(Nc1ccccc1)OCCSC(=O)Nc1ccc(Cl)c(Cl)c1,inactive

# Tested on: Escherichia coli
# Assay: Antibacterial activity against CLPB-deleted Escherichia coli MC4100 assessed as reduction of CFU count at 300 uM at 37 degC after 24 hrs by two-fold dilution method in presence of paraquat
# Format: functional, organism-based
# Settings: not given
row,SMILES,Activity
1,O=C(Nc1ccccc1)OCCSC(=O)Nc1ccc(Cl)c(Cl)c1,inactive

# Tested on: Escherichia coli
# Assay: Antibacterial activity against Escherichia coli MC4100 assessed as reduction of CFU count at 300 uM at 42 degC after 24 hrs by two-fold dilution method
# Format: functional
# Settings: not given
row,SMILES,log10cfu
1,O=C(Nc1ccccc1)OCCSC(=O)Nc1ccc(Cl)c(Cl)c1,2

# Tested on: Escherichia coli
# Assay: Antibacterial activity against Escherichia coli MC4100 assessed as reduction of CFU count at 300 uM at 37 degC after 24 hrs by two-fold dilution method in presence of paraquat
# Format: functional
# Settings: not given
row,SMILES,log10cfu
1,O=C(Nc1ccccc1)OCCSC(=O)Nc1ccc(Cl)c(Cl)c1,2

# Tested on: Escherichia coli
# Assay: Antibacterial activity against Escherichia coli MC4100 assessed as growth inhibition at 42 degC after 24 hrs by two-fold dilution method in presence of paraquat
# Format: functional
# Settings: MC4100, 24 h
row,SMILES,MIC
1,O=C(Nc1ccccc1)OCCSC(=O)Nc1ccc(Cl)c(Cl)c1,60 µM

# Tested on: Escherichia coli
# Assay: Antibacterial activity against Escherichia coli BL21(DE3) assessed as growth inhibition at 42 degC after 24 hrs by two-fold dilution method in presence of paraquat
# Format: functional
# Settings: not given
row,SMILES,MIC
1,O=C(Nc1ccccc1)OCCSC(=O)Nc1ccc(Cl)c(Cl)c1,60 µM

# Target: not listed separately
# Assay: Inhibition of DNAK (unknown origin) assessed as reactivation of luciferase aggregates after 2 hrs in presence of Tween 80
# Settings: not given
row,SMILES,IC50
1,O=C1Nc2ccc(Br)cc2/C1=C1/SC(=O)N(c2ccccc2)C1=O,50 µM
2,C=CCN1C(=O)C(=C2C(=O)Nc3ccccc32)SC1=S,> 100 µM
3,COc1cc(/C=C2/C(=O)NN(c3ccc(Cl)cc3)C2=O)ccc1OCc1ccc(F)cc1,> 100 µM
4,O=C1Nc2ccc([N+](=O)[O-])cc2/C1=C1\SC(=O)N(c2ccc(Cl)cc2)C1=O,60 µM
5,O=C(Nc1ccccc1)OCCSC(=O)Nc1ccc(Cl)c(Cl)c1,> 100 µM

# Target: not listed separately
# Assay: Inhibition of DNAK (unknown origin) assessed as reactivation of luciferase aggregates after 2 hrs
# Settings: not given
row,SMILES,IC50
1,O=C1Nc2ccc(Br)cc2/C1=C1/SC(=O)N(c2ccccc2)C1=O,85 µM
2,C=CCN1C(=O)C(=C2C(=O)Nc3ccccc32)SC1=S,> 100 µM
3,COc1cc(/C=C2/C(=O)NN(c3ccc(Cl)cc3)C2=O)ccc1OCc1ccc(F)cc1,> 100 µM
4,O=C1Nc2ccc([N+](=O)[O-])cc2/C1=C1\SC(=O)N(c2ccc(Cl)cc2)C1=O,40 µM
5,O=C(Nc1ccccc1)OCCSC(=O)Nc1ccc(Cl)c(Cl)c1,> 100 µM

# Target: not listed separately
# Assay: Inhibition of DNAK/CLPB (unknown origin) assessed as reactivation of malate dehydrogenase aggregates after 2 hrs in presence of Tween 80
# Settings: not given
row,SMILES,IC50
1,O=C1Nc2ccc(Br)cc2/C1=C1/SC(=O)N(c2ccccc2)C1=O,15 µM
2,C=CCN1C(=O)C(=C2C(=O)Nc3ccccc32)SC1=S,> 100 µM
3,COc1cc(/C=C2/C(=O)NN(c3ccc(Cl)cc3)C2=O)ccc1OCc1ccc(F)cc1,11 µM
4,O=C1Nc2ccc([N+](=O)[O-])cc2/C1=C1\SC(=O)N(c2ccc(Cl)cc2)C1=O,6 µM
5,O=C(Nc1ccccc1)OCCSC(=O)Nc1ccc(Cl)c(Cl)c1,15 µM

# Target: not listed separately
# Assay: Inhibition of DNAK/CLPB (unknown origin) assessed as reactivation of malate dehydrogenase aggregates after 2 hrs
# Settings: not given
row,SMILES,IC50
1,O=C1Nc2ccc(Br)cc2/C1=C1/SC(=O)N(c2ccccc2)C1=O,30 µM
2,C=CCN1C(=O)C(=C2C(=O)Nc3ccccc32)SC1=S,> 100 µM
3,COc1cc(/C=C2/C(=O)NN(c3ccc(Cl)cc3)C2=O)ccc1OCc1ccc(F)cc1,7.5 µM
4,O=C1Nc2ccc([N+](=O)[O-])cc2/C1=C1\SC(=O)N(c2ccc(Cl)cc2)C1=O,10 µM
5,O=C(Nc1ccccc1)OCCSC(=O)Nc1ccc(Cl)c(Cl)c1,20 µM

# Tested on: not listed separately
# Assay: Binding affinity to CLPB (unknown origin) expressed in Escherichia coli MC4100 up to 400 seconds by surface plasmon resonance analysis
# Settings: not given
row,SMILES,Kd
1,O=C(Nc1ccccc1)OCCSC(=O)Nc1ccc(Cl)c(Cl)c1,19 µM

# Tested on: not listed separately
# Assay: Binding affinity to CLPB E276A/E678A mutant (unknown origin)-alpha-casein complex expressed in Escherichia coli MC4100 at 0.1 to 1000 uM by titrimetric analysis
# Settings: not given
row,SMILES,Activity
1,O=C(Nc1ccccc1)OCCSC(=O)Nc1ccc(Cl)c(Cl)c1,inactive

# Tested on: not listed separately
# Assay: Binding affinity to CLPB E276A/E678A mutant (unknown origin) expressed in Escherichia coli MC4100 at 100 uM in presence of alpha-casein by spectrofluorimetric analysis
# Settings: not given
row,SMILES,Activity
1,O=C(Nc1ccccc1)OCCSC(=O)Nc1ccc(Cl)c(Cl)c1,Active

# Tested on: not listed separately
# Assay: Binding affinity to CLPB E276A/E678A mutant (unknown origin) expressed in Escherichia coli MC4100 assessed as change in melting temperature by DSF analysis
# Settings: not given
row,SMILES,Kd
1,O=C(Nc1ccccc1)OCCSC(=O)Nc1ccc(Cl)c(Cl)c1,23 µM

# Tested on: Escherichia coli
# Assay: Antibacterial activity against CLPB-deleted Escherichia coli MC4100 assessed as growth inhibition at 0.1 to 1000 uM at 37 to 47 degC after 24 hrs by two-fold dilution method in presence of paraquat
# Format: functional, organism-based
# Settings: not given
row,SMILES,growth inhibition (GI)
1,O=C(Nc1ccccc1)OCCSC(=O)Nc1ccc(Cl)c(Cl)c1,inactive

# Tested on: Escherichia coli
# Assay: Antibacterial activity against Escherichia coli BL21(DE3) assessed as growth inhibition at 0.1 to 1000 uM at 37 to 47 degC after 24 hrs by two-fold dilution method in presence of paraquat
# Format: functional
# Settings: not given
row,SMILES,growth inhibition (GI)
1,O=C(Nc1ccccc1)OCCSC(=O)Nc1ccc(Cl)c(Cl)c1,Active

# Tested on: not listed separately
# Assay: Inhibition of ATPase activity of CLPB (unknown origin) expressed in Escherichia coli MC4100 using 20 to 100 uM alpha-casein as substrate at 1 to 100 uM by spectrophotometric analysis
# Settings: not given
row,SMILES,inhibition
1,O=C(Nc1ccccc1)OCCSC(=O)Nc1ccc(Cl)c(Cl)c1,inactive

# Tested on: not listed separately
# Assay: Inhibition of ATPase activity of CLPB (unknown origin) expressed in Escherichia coli MC4100 using 10 uM alpha-casein as substrate at 1 to 100 uM by spectrophotometric analysis
# Settings: not given
row,SMILES,inhibition
1,O=C(Nc1ccccc1)OCCSC(=O)Nc1ccc(Cl)c(Cl)c1,Active

# Tested on: not listed separately
# Assay: Activation of CLPB (unknown origin) expressed in Escherichia coli MC4100 using alpha-casein as substrate at 1 to 100 uM by spectrophotometric analysis
# Settings: not given
row,SMILES,Activity
1,O=C1Nc2ccc(Br)cc2/C1=C1/SC(=O)N(c2ccccc2)C1=O,Active
2,COc1cc(/C=C2/C(=O)NN(c3ccc(Cl)cc3)C2=O)ccc1OCc1ccc(F)cc1,Active
3,O=C1Nc2ccc([N+](=O)[O-])cc2/C1=C1\SC(=O)N(c2ccc(Cl)cc2)C1=O,Active

# Tested on: not listed separately
# Assay: Activation of CLPB (unknown origin) expressed in Escherichia coli MC4100 at 1 to 100 uM by spectrophotometric analysis
# Settings: not given
row,SMILES,Activity
1,O=C1Nc2ccc(Br)cc2/C1=C1/SC(=O)N(c2ccccc2)C1=O,Active
2,COc1cc(/C=C2/C(=O)NN(c3ccc(Cl)cc3)C2=O)ccc1OCc1ccc(F)cc1,Active
3,O=C1Nc2ccc([N+](=O)[O-])cc2/C1=C1\SC(=O)N(c2ccc(Cl)cc2)C1=O,Active

# Tested on: not listed separately
# Assay: Effect on ATPase activity of CLPB (unknown origin) expressed in Escherichia coli MC4100 using alpha-casein as substrate at 1 to 100 uM by spectrophotometric analysis
# Settings: not given
row,SMILES,Activity
1,C=CCN1C(=O)C(=C2C(=O)Nc3ccccc32)SC1=S,inactive

# Tested on: not listed separately
# Assay: Effect on ATPase activity of CLPB (unknown origin) expressed in Escherichia coli MC4100 at 1 to 100 uM by spectrophotometric analysis
# Settings: not given
row,SMILES,Activity
1,C=CCN1C(=O)C(=C2C(=O)Nc3ccccc32)SC1=S,inactive

# Tested on: Escherichia coli
# Assay: Antibacterial activity against Escherichia coli MC4100 assessed as growth inhibition at 0.1 to 1000 uM at 37 to 47 degC after 24 hrs by two-fold dilution method in presence of paraquat
# Format: functional, organism-based
# Settings: not given
row,SMILES,growth inhibition (GI)
1,O=C(Nc1ccccc1)OCCSC(=O)Nc1ccc(Cl)c(Cl)c1,Active

# Tested on: not listed separately
# Assay: Binding affinity to CLPB (unknown origin) expressed in Escherichia coli MC4100 assessed as change in melting temperature at 100 to 200 uM after 30 mins by DSF analysis in presence of ATPgammaS
# Settings: not given
row,SMILES,ΔTm
1,O=C1Nc2ccc(Br)cc2/C1=C1/SC(=O)N(c2ccccc2)C1=O,14.6 °C
2,C=CCN1C(=O)C(=C2C(=O)Nc3ccccc32)SC1=S,5.4 °C
3,COc1cc(/C=C2/C(=O)NN(c3ccc(Cl)cc3)C2=O)ccc1OCc1ccc(F)cc1,7.1 °C
4,O=C1Nc2ccc([N+](=O)[O-])cc2/C1=C1\SC(=O)N(c2ccc(Cl)cc2)C1=O,12.3 °C
5,O=C(Nc1ccccc1)OCCSC(=O)Nc1ccc(Cl)c(Cl)c1,2 °C

# Tested on: not listed separately
# Assay: Binding affinity to CLPB (unknown origin) expressed in Escherichia coli MC4100 assessed as change in melting temperature at 100 to 200 uM after 30 mins by DSF analysis in presence of ADP
# Settings: not given
row,SMILES,ΔTm
1,O=C1Nc2ccc(Br)cc2/C1=C1/SC(=O)N(c2ccccc2)C1=O,-0.7 °C
2,C=CCN1C(=O)C(=C2C(=O)Nc3ccccc32)SC1=S,7.6 °C
3,COc1cc(/C=C2/C(=O)NN(c3ccc(Cl)cc3)C2=O)ccc1OCc1ccc(F)cc1,0.7 °C
4,O=C(Nc1ccccc1)OCCSC(=O)Nc1ccc(Cl)c(Cl)c1,0.8 °C

# Tested on: not listed separately
# Assay: Binding affinity to CLPB (unknown origin) expressed in Escherichia coli MC4100 assessed as change in melting temperature at 100 to 200 uM after 30 mins by DSF analysis in presence of ATP
# Settings: not given
row,SMILES,ΔTm
1,O=C1Nc2ccc(Br)cc2/C1=C1/SC(=O)N(c2ccccc2)C1=O,-0.2 °C
2,C=CCN1C(=O)C(=C2C(=O)Nc3ccccc32)SC1=S,7.9 °C
3,COc1cc(/C=C2/C(=O)NN(c3ccc(Cl)cc3)C2=O)ccc1OCc1ccc(F)cc1,1.2 °C
4,O=C(Nc1ccccc1)OCCSC(=O)Nc1ccc(Cl)c(Cl)c1,0.8 °C

# Tested on: not listed separately
# Assay: Binding affinity to CLPB (unknown origin) expressed in Escherichia coli MC4100 assessed as change in melting temperature at 100 to 200 uM after 30 mins by DSF analysis
# Settings: not given
row,SMILES,ΔTm
1,O=C1Nc2ccc(Br)cc2/C1=C1/SC(=O)N(c2ccccc2)C1=O,18.1 °C
2,C=CCN1C(=O)C(=C2C(=O)Nc3ccccc32)SC1=S,9 °C
3,COc1cc(/C=C2/C(=O)NN(c3ccc(Cl)cc3)C2=O)ccc1OCc1ccc(F)cc1,1 °C
4,O=C1Nc2ccc([N+](=O)[O-])cc2/C1=C1\SC(=O)N(c2ccc(Cl)cc2)C1=O,> 40 °C
5,O=C(Nc1ccccc1)OCCSC(=O)Nc1ccc(Cl)c(Cl)c1,1.5 °C
